Read-outs that look alike come from different tables or passages of the source.
How the values were obtained:
[1] = target: BRM (Homo sapiens, UniProt P51531); test: ATPase catalytic activity assay of BRM (ADP-Glo); type: biochemical; conditions: for IC50: read-out: BRM IC50 (μM)*
Procedure: (§1) The ATPase catalytic activity of BRM or BRG-1 was measured by the in vitro biochemical assay using ADP-Glo™ (Promega, V9102). The ADP-Glo™ kinase assay is performed in two steps once the reaction is complete. The first step is to deplete any unconsumed ATP in the reaction. The second step is to convert the reaction product ADP to ATP, which will be utilized by the luciferase to generate luminesce and be detected by a luminescence reader, such as Envision.
(§2) Then following addition of 5 μL of ADP-Glo™ Reagent provided in the kit, the reaction incubates at room temperature for 40 minutes. Then 10 μL of Kinase Detection Reagent provided in the kit is added to convert ADP to ATP, and the reaction incubates at room temperature for 60 minutes. Finally, luminescence measurement is collected with a plate-reading luminometer, such as Envision.
as §1, with “The” for “The ATPase catalytic activity of BRM or BRG-1 was measured by the in vitro biochemical assay using ADP-Glo™ (Promega, V9102). The”

[2] = target: BRG-1 (Homo sapiens, UniProt P51532); test: ATPase catalytic activity assay of BRG-1 (ADP-Glo); type: biochemical; conditions: ATPase catalytic activity, ADP-Glo; for IC50: read-out: BRG1 IC50 (μM)*; for Emax: read-out: BRG1 Max % Inhibition
Sequence of BRG-1 (P51532 whole entry): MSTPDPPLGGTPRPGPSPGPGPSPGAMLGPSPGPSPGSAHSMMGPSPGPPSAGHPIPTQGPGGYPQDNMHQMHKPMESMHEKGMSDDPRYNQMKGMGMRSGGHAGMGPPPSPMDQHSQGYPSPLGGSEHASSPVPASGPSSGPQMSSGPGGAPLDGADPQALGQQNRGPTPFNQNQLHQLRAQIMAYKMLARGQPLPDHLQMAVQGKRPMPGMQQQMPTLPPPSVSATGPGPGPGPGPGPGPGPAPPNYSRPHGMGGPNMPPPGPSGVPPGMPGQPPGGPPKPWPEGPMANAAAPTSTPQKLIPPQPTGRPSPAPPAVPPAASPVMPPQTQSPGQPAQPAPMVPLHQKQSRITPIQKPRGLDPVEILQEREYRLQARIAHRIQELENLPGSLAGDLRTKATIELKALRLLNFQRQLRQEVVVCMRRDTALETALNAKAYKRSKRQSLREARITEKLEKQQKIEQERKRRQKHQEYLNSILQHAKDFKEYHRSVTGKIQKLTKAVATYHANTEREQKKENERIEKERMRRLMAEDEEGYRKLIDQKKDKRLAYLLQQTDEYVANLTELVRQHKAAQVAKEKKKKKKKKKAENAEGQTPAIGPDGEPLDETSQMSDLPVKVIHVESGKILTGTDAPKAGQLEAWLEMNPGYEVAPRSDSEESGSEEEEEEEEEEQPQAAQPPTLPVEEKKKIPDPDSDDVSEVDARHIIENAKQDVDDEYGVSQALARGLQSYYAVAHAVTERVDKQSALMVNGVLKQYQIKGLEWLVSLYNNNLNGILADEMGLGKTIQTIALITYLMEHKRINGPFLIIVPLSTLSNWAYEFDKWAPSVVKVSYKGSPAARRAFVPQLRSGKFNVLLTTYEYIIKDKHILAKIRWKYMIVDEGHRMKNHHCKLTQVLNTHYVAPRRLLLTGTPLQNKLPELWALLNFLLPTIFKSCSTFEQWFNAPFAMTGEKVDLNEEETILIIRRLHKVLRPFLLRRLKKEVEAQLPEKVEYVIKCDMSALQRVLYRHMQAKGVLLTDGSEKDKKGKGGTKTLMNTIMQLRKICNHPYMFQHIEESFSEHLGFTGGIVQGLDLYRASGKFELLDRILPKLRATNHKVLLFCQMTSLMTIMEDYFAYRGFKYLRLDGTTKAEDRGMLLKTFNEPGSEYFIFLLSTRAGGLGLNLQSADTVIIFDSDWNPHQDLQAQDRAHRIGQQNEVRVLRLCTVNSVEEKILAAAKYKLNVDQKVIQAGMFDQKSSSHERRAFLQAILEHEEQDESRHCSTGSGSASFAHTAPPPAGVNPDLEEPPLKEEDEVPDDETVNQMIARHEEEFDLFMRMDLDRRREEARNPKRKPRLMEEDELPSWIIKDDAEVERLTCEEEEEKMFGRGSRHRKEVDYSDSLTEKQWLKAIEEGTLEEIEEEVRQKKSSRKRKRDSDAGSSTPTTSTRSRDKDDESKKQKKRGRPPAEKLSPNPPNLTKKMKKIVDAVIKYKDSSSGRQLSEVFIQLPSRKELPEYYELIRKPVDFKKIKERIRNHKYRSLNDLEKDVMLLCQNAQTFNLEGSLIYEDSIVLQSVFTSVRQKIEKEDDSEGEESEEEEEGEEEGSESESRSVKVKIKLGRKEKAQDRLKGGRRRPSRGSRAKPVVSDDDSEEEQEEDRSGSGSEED
Procedure: as §1, §2
as §1, with “The” for “The ATPase catalytic activity of BRM or BRG-1 was measured by the in vitro biochemical assay using ADP-Glo™ (Promega, V9102). The”

Sequence of BRM (P51531 whole entry): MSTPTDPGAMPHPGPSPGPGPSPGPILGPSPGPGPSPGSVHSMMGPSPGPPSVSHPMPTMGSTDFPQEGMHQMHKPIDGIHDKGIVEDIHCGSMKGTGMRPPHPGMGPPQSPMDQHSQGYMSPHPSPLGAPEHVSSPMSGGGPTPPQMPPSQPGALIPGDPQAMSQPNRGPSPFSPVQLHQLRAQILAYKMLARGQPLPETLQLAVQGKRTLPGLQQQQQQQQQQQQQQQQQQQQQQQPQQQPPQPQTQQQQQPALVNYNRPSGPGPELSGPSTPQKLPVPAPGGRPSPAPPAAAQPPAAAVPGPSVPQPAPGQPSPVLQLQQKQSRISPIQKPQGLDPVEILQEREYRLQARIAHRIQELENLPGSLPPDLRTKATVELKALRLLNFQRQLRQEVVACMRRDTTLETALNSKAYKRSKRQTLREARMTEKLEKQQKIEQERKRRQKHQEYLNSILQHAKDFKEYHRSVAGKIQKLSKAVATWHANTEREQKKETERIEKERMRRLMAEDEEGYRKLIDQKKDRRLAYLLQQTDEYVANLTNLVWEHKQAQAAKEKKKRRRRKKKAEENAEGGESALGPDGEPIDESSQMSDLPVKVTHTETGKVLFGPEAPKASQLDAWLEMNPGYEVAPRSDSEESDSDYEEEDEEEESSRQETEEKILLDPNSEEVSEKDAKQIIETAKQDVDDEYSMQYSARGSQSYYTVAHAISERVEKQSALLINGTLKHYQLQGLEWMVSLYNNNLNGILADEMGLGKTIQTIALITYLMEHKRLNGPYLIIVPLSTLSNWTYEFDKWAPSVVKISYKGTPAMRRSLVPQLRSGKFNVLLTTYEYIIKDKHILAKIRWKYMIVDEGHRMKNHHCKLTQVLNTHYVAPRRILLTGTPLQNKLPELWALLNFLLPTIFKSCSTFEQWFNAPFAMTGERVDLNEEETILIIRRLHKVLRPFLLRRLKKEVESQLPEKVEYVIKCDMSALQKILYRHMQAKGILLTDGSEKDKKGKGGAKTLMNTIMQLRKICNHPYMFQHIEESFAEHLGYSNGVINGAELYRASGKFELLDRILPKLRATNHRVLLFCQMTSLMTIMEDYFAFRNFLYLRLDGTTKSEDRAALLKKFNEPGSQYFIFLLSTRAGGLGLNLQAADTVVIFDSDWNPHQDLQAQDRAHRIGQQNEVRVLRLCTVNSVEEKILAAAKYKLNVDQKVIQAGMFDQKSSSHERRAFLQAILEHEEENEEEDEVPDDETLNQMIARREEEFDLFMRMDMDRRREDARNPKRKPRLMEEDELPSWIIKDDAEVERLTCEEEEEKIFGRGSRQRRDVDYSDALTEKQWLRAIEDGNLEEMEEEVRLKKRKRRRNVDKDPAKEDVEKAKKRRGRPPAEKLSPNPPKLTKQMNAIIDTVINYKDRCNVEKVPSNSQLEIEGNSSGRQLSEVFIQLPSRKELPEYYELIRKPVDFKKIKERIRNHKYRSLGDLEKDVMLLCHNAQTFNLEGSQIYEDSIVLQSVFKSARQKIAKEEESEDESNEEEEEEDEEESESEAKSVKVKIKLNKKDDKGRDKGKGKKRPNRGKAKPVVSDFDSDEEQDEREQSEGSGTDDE

SMILES	BRM Max % Inhibition [1] [%]	IC50 [1] [µM]	IC50 [2] [µM]	Emax [2] [%]	BRM Max % Inhibition ([1]; 30 nM BRM, 400 μM ATP) [%]	IC50 ([1]; 30 nM BRM, 400 μM ATP) [µM]	IC50 ([2]; 30 nM BRG-1, 400 μM ATP) [µM]	Emax ([2]; 30 nM BRG-1, 400 μM ATP) [%]	BRG1 Max % Inhibition [2] [%]
C[C@@H]1CN(c2cccc(-c3csc(NC(=O)CNC(=O)c4ccc5c(c4)[C@H](C#N)CCO5)n3)n2)C[C@H](C)O1 (racemic) [Compound 405, rac-4-cyano-N-(2-((4-(6-((cis)-2,6-dimethylmorpholino)pyridin-2-yl)thiazol-2-yl)amino)-2-oxoethyl)chromane-6-carboxamide]	>90	0.1 to 1	1 to 5	> 90	–	–	–	–	–
CCC(C)(O)c1cccc(C(=O)NCC(=O)Nc2nc(-c3cccc(-c4ccncc4)c3)cs2)c1 (single isomer, unassigned) [Compound 81]	>90	0.1 to 1	0.1 to 1	–	–	–	–	–	>70
CC1(C#N)CCc2ccc(C(=O)NCC(=O)Nc3nc(-c4cccc(-c5ccncc5)c4)cs3)cc21 (single isomer, unassigned) [Compound 103]	>95	< 0.1	< 0.1	–	–	–	–	–	>95
CC1(CO)CCc2ccc(C(=O)NCC(=O)Nc3nc(-c4cccc(-c5ccncc5)c4)cs3)cc21 (single isomer, unassigned) [Compound 105]	>95	< 0.1	< 0.1	> 90	–	–	–	–	–
CC1(CO)CCc2ccc(C(=O)NCC(=O)Nc3nc(-c4cccc(-c5ccncc5)c4)cs3)cc21 (single isomer, unassigned) [Compound 107]	>90	0.1 to 1	0.1 to 1	–	–	–	–	–	>70
C[C@@H]1CN(c2cccc(-c3csc(NC(=O)CNC(=O)c4ccc5c(c4)[C@](C)(CO)CO5)n3)n2)C[C@H](C)O1 (single isomer, unassigned) [Compound 132]	>80	0.1 to 1	> 5	> 50	–	–	–	–	–
C[C@@H]1CN(c2cccc(-c3csc(NC(=O)CNC(=O)c4ccc5c(c4)[C@@](F)(C#N)COC5)n3)n2)C[C@H](C)O1 (single isomer, unassigned) [Compound 299]	>95	< 0.1	0.1 to 1	> 95	–	–	–	–	–
CCOC(=O)N1CCC[C@H](c2csc(NC(=O)CNC(=O)c3ccc4c(c3)C(C)(F)COC4)n2)C1 (stereo in doubt) [Compound 284, ethyl (S)-3-(2-(2-((R)-4-fluoro-4-methylisochromane-6-carboxamido)acetamido)thiazol-4-yl)piperidine-1-carboxylate]	>95	< 0.1	0.1 to 1	> 95	–	–	–	–	–
COC(=O)N1CCC[C@H](c2csc(NC(=O)CNC(=O)c3ccc4c(c3)C(C)(F)COC4)n2)C1 (stereo in doubt) [Compound 301, methyl (S)-3-(2-(2-((R)-4-fluoro-4-methylisochromane-6-carboxamido)acetamido)thiazol-4-yl)piperidine-1-carboxylate]	>95	0.1 to 1	1 to 5	> 95	–	–	–	–	–

Next, values leading:

BRM Max % Inhibition [1] [%]	IC50 [1] [µM]	IC50 [2] [µM]	Emax [2] [%]	BRM Max % Inhibition ([1]; 30 nM BRM, 400 μM ATP) [%]	IC50 ([1]; 30 nM BRM, 400 μM ATP) [µM]	IC50 ([2]; 30 nM BRG-1, 400 μM ATP) [µM]	Emax ([2]; 30 nM BRG-1, 400 μM ATP) [%]	BRG1 Max % Inhibition [2] [%]	SMILES
–	–	–	–	>80	0.1 to 1	> 5	> 80	–	C[C@@H]1CN(c2cccc(-c3csc(NC(=O)CNC(=O)c4cccc([C@H]5COC[C@H]5O)c4)n3)c2)C[C@H](C)O1 (relative stereo) [Compound 424, N-(2-((4-(3-((cis)-2,6-dimethylmorpholino)phenyl)thiazol-2-yl)amino)-2-oxoethyl)-3-((cis)-4-hydroxytetrahydrofuran-3-yl)benzamide]
>90	1 to 5	0.1 to 1	> 80	–	–	–	–	–	CCC(C)(O)c1cccc(C(=O)NCC(=O)Nc2nc(-c3cccc(-c4ccncc4)c3)cs2)c1 (single isomer, unassigned) [Compound 80]
>50	0.1 to 1	> 5	–	–	–	–	–	>30	CC1(C#N)CCc2ccc(C(=O)NCC(=O)Nc3nc(-c4cccc(-c5ccncc5)c4)cs3)cc21 (single isomer, unassigned) [Compound 88]
>95	0.1 to 1	1 to 5	> 70	–	–	–	–	–	C[C@@H]1CN(c2cccc(-c3csc(NC(=O)CNC(=O)c4ccc5c(c4)[C@@](C)(CO)CO5)n3)n2)C[C@H](C)O1 (single isomer, unassigned) [Compound 133]
>95	0.1 to 1	1 to 5	> 95	–	–	–	–	–	C[C@@H]1CN(c2cccc(-c3csc(NC(=O)CNC(=O)c4ccc5c(c4)[C@](F)(C#N)COC5)n3)n2)C[C@H](C)O1 (single isomer, unassigned) [Compound 298]
>95	0.1 to 1	0.1 to 1	> 80	–	–	–	–	–	CN1CCc2ccc(-c3csc(NC(=O)CNC(=O)c4ccc5c(c4)C(C)(CO)CC5)n3)cc2C1=O (stereo in doubt) [Compound 176, (R)-3-(hydroxymethyl)-3-methyl-N-(2-((4-(2-methyl-1-oxo-1,2,3,4-tetrahydroisoquinolin-7-yl)thiazol-2-yl)amino)-2-oxoethyl)-2,3-dihydro-1H-indene-5-carboxamide]
>80	0.1 to 1	> 5	> 50	–	–	–	–	–	CC1(CO)CCc2ccc(C(=O)NCC(=O)Nc3nc(-c4ccn5ccnc5c4)cs3)cc21 (stereo in doubt) [Compound 178, (R)-3-(hydroxymethyl)-N-(2-((4-(imidazo[1,2-a]pyridin-7-yl)thiazol-2-yl)amino)-2-oxoethyl)-3-methyl-2,3-dihydro-1H-indene-5-carboxamide]
>95	< 0.1	< 0.1	> 95	–	–	–	–	–	C[C@@H]1CN(c2cccc(-c3csc(NC(=O)CNC(=O)c4ccc5c(c4)C(F)(C(F)F)CCO5)n3)n2)C[C@H](C)O1 (stereo in doubt) [Compound 272, (R)-4-(difluoromethyl)-N-(2-((4-(6-((cis)-2,6-dimethylmorpholino)pyridin-2-yl)thiazol-2-yl)amino)-2-oxoethyl)-4-fluorochromane-6-carboxamide]
>95	< 0.1	0.1 to 1	> 95	–	–	–	–	–	C[C@@H]1CN(c2cccc(-c3csc(NC(=O)CNC(=O)c4ccc5c(c4)C(F)(C(F)F)CCO5)n3)n2)C[C@H](C)O1 (stereo in doubt) [Compound 273, (S)-4-(difluoromethyl)-N-(2-((4-(6-((cis)-2,6-dimethylmorpholino)pyridin-2-yl)thiazol-2-yl)amino)-2-oxoethyl)-4-fluorochromane-6-carboxamide]
>90	0.1 to 1	1 to 5	> 90	–	–	–	–	–	COc1cccc(-c2csc(NC(=O)CNC(=O)c3cc(F)c4c(c3)C(C)(O)COC4)n2)c1 (stereo in doubt) [Compound 280, (R)-8-fluoro-4-hydroxy-N-(2-((4-(3-methoxyphenyl)thiazol-2-yl)amino)-2-oxoethyl)-4-methylisochromane-6-carboxamide]
>95	< 0.1	0.1 to 1	> 95	–	–	–	–	–	CCOC(=O)N1CCCC(c2csc(NC(=O)CNC(=O)c3ccc4c(c3)[C@](C)(F)COC4)n2)C1 (stereo in doubt) [Compound 283, ethyl (S)-3-(2-(2-((S)-4-fluoro-4-methylisochromane-6-carboxamido)acetamido)thiazol-4-yl)piperidine-1-carboxylate]
>95	< 0.1	< 0.1	> 95	–	–	–	–	–	C[C@@H]1CN(c2cccc(-c3csc(NC(=O)CNC(=O)c4ccc5c(c4)C(C)(C#N)CNC5)n3)c2)C[C@H](C)O1 (stereo in doubt) [Compound 287, (S)-4-cyano-N-(2-((4-(3-((cis)-2,6-dimethylmorpholino)phenyl)thiazol-2-yl)amino)-2-oxoethyl)-4-methyl-1,2,3,4-tetrahydroisoquinoline-6-carboxamide]
>95	< 0.1	0.1 to 1	> 95	–	–	–	–	–	COC(=O)N1CCCC(c2csc(NC(=O)CNC(=O)c3ccc4c(c3)[C@](C)(F)COC4)n2)C1 (stereo in doubt) [Compound 302, methyl (S)-3-(2-(2-((S)-4-fluoro-4-methylisochromane-6-carboxamido)acetamido)thiazol-4-yl)piperidine-1-carboxylate]
>95	< 0.1	< 0.1	> 95	–	–	–	–	–	C[C@@H]1CN(c2cccc(-c3csc(NC(=O)CNC(=O)c4ccc5c(c4)C(F)(C(F)F)COC5)n3)c2)C[C@H](C)O1 (stereo in doubt) [Compound 307, (R)-4-(difluoromethyl)-N-(2-((4-(3-((cis)-2,6-dimethylmorpholino)phenyl)thiazol-2-yl)amino)-2-oxoethyl)-4-fluoroisochromane-6-carboxamide]

— US12685735B2 (Foghorn Therapeutics Inc., priority 2020, dated 2026)
